Test results as given in paper PMC8632988, “Inhibition of SYK and cSrc kinases can protect bone and cartilage in preclinical models of osteoarthritis and rheumatoid arthritis” (Scientific Reports, 2021).
“And” between values parts separate entries of the source, which are not always exact repeats. Equal values may be shown once.

How the values were obtained:
[1] = molecular target: SYK (Homo sapiens, UniProt P43405); assay: Kinase selectivity profile assay; assay type: biochemical; parameters: purchased Reaction Biology Corporation; settings: 500 nM; relative to DMSO; read-out: Residual enzymatic activity
Text: Kinase activity data was expressed as the percent remaining kinase activity in test samples compared to vehicle (dimethyl sulfoxide) reactions based on the radioactivity of reaction products (see Table S2). Experiment was replicated twice.

[2] = test system: DBA/1 mice, CIA model; assay: Collagen-induced arthritis model in mice; assay type: in vivo, mouse; settings: BID
Method: Collagen-induced arthritis (CIA) model was performed at Bolder BioPATH, USA. Study design and animal usage was approved by Bolder BioPATH’s Institutional Animal Care and Use Committee. CIA was induced in 6–7 week old male DBA/1 mice with body weight of 15–26 g (Harlan, Inc) by intradermal injection of Freund’s Complete Adjuvant (Difco) containing bovine type II collagen (Bolder BioPATH) on day 0 and again on day 21 according to the standard protocol. […] After that mice were randomized into six groups: a control group of four, vehicle group and four treatment groups of ten mice each. […] Each paw was scored daily for inflammation. Therapeutic and prophylactic paws were considered. At study termination mice were euthanized by CO2 inhalation followed by cervical dislocation. Fore paws, hind paws, and knees were removed for microscopy.
Mice were weighed on arthritis days 1, 3, 5, 7, 9, and 11 (prior to necropsy). Daily clinical scores were given for each of the paws (right front, left front, right rear, left rear) on days 1–11 using the following criteria:
After 1–2 days in fixative and 4–5 days in 5% formic acid for decalcification, tissues were trimmed, processed for paraffin embedding, sectioned at 8 µm and stained with toluidine blue. Hind paws and knees were embedded and sectioned in the frontal plane. Two joints from each animal were processed for histopathology evaluation. The joints were then scored by two independent readers as indicated below. When scoring, severity of changes as well as number of individual joints affected were considered. When only 1–3 joints of the paws or ankles out of a possibility of numerous metacarpal/metatarsal/digit or tarsal/tibiotarsal joints were affected, an arbitrary assignment of a maximum score of 1, 2 or 3 for parameters below was given depending on severity of changes. If more than 3 joints were involved, the criteria below were applied to the most severely affected/majority of joints.

## COc1cc(Nc2ncnc(Nc3cc4c(cn3)NC(=O)C(C)(C)O4)n2)cc(OC)c1OC [MT-SYK-03]
[1]
  remaining activity at 0.5 µM: 57.4%
[2]; 103 mg/kg PO
  % inhibition to Vehicle, Paw Score Total AUC Sum (d1-11): 12%
[2]; 103 mg/kg PO, group Mean
  Paw Score Total AUC Sum (d1-11): 28.48
[2]; 103 mg/kg PO, individual animals
  Paw Score Total AUC Sum (d1-11): 27.25 and 32.38 and 26.00 and 35.88 and 12.50 and 29.00 and 37.38 and 33.00 and 33.88 and 17.50
[2]; Day 1, 103 mg/kg PO
  % inhibition to Vehicle, Average Paw Score: 0%
[2]; Day 1, 103 mg/kg PO, group Mean
  Average Paw Score Per Arthritis Day (All Paws): 0.80
[2]; Day 1, 103 mg/kg PO, individual animals, 103 mg/kg
  Average Paw Score Per Arthritis Day (All Paws): 0.50 and 1.50 and 1.00
[2]; Day 2, 103 mg/kg PO
  % inhibition to Vehicle, Average Paw Score: 18%
[2]; Day 2, 103 mg/kg PO, group Mean
  Average Paw Score Per Arthritis Day (All Paws): 1.50
[2]; Day 2, 103 mg/kg PO, individual animals, 103 mg/kg
  Average Paw Score Per Arthritis Day (All Paws): 1.25 and 2.00 and 1.00 and 2.50 and 1.50 and 0.50
[2]; Day 3, 103 mg/kg PO
  % inhibition to Vehicle, Average Paw Score: 15%
[2]; Day 3, 103 mg/kg PO, group Mean
  Average Paw Score Per Arthritis Day (All Paws): 2.25
[2]; Day 3, 103 mg/kg PO, individual animals, 103 mg/kg
  Average Paw Score Per Arthritis Day (All Paws): 2.25 and 3.00 and 1.25 and 3.25 and 2.00 and 2.75 and 2.50
[2]; Day 4, 103 mg/kg PO
  % inhibition to Vehicle, Average Paw Score: 13%
[2]; Day 4, 103 mg/kg PO, group Mean
  Average Paw Score Per Arthritis Day (All Paws): 2.75
[2]; Day 4, 103 mg/kg PO, individual animals, 103 mg/kg
  Average Paw Score Per Arthritis Day (All Paws): 2.75 and 3.25 and 2.00 and 3.50 and 1.25 and 3.00
[2]; Day 5, 103 mg/kg PO
  % inhibition to Vehicle, Average Paw Score: 12%
[2]; Day 5, 103 mg/kg PO, group Mean
  Average Paw Score Per Arthritis Day (All Paws): 3.08
[2]; Day 5, 103 mg/kg PO, individual animals, 103 mg/kg
  Average Paw Score Per Arthritis Day (All Paws): 3.00 and 3.50 and 2.75 and 3.75 and 1.25 and 4.00 and 2.00
[2]; Day 6, 103 mg/kg PO
  % inhibition to Vehicle, Average Paw Score: 11%
[2]; Day 6, 103 mg/kg PO, group Mean
  Average Paw Score Per Arthritis Day (All Paws): 3.18
[2]; Day 6, 103 mg/kg PO, individual animals, 103 mg/kg
  Average Paw Score Per Arthritis Day (All Paws): 3.00 and 3.50 and 3.75 and 1.25 and 4.00 and 2.25
[2]; Day 7, 103 mg/kg PO
  % inhibition to Vehicle, Average Paw Score: 10%
[2]; Day 7, 103 mg/kg PO, group Mean
  Average Paw Score Per Arthritis Day (All Paws): 3.28
[2]; Day 7, 103 mg/kg PO, individual animals, 103 mg/kg
  Average Paw Score Per Arthritis Day (All Paws): 3.00 and 3.50 and 3.25 and 4.00 and 1.25 and 4.25 and 3.75 and 2.25
[2]; Day 8, 103 mg/kg PO
  % inhibition to Vehicle, Average Paw Score: 12%
[2]; Day 8, 103 mg/kg PO, group Mean
  Average Paw Score Per Arthritis Day (All Paws): 3.33
[2]; Day 8, 103 mg/kg PO, individual animals, 103 mg/kg
  Average Paw Score Per Arthritis Day (All Paws): 3.25 and 3.50 and 4.00 and 1.25 and 4.50 and 3.75 and 4.25 and 2.00
[2]; Day 9, 103 mg/kg PO
  % inhibition to Vehicle, Average Paw Score: 13%
[2]; Day 9, 103 mg/kg PO, group Mean
  Average Paw Score Per Arthritis Day (All Paws): 3.43
[2]; Day 9, 103 mg/kg PO, individual animals, 103 mg/kg
  Average Paw Score Per Arthritis Day (All Paws): 3.25 and 3.75 and 3.50 and 4.25 and 1.50 and 4.50 and 2.00
[2]; Day 10, 103 mg/kg PO
  % inhibition to Vehicle, Average Paw Score: 13%
[2]; Day 10, 103 mg/kg PO, group Mean
  Average Paw Score Per Arthritis Day (All Paws): 3.53
[2]; Day 10, 103 mg/kg PO, individual animals, 103 mg/kg
  Average Paw Score Per Arthritis Day (All Paws): 3.50 and 3.75 and 4.25 and 1.50 and 4.75 and 4.00 and 2.00
[2]; Day 11, 103 mg/kg PO
  % inhibition to Vehicle, Average Paw Score: 12%
[2]; Day 11, 103 mg/kg PO, group Mean
  Average Paw Score Per Arthritis Day (All Paws): 3.55
[2]; Day 11, 103 mg/kg PO, individual animals, 103 mg/kg
  Average Paw Score Per Arthritis Day (All Paws): 3.50 and 3.75 and 4.00 and 4.25 and 1.50 and 4.75 and 2.00
[2]; MT-SYK-03 103 mg/kg PO
  % inhibition to Vehicle, Total AUC Sum (d1-11): 18%
[2]; MT-SYK-03 103 mg/kg PO, Day 1, group mean
  Summed Prophylactic (Non-Enrollment) Paw Score: 0.00
[2]; MT-SYK-03 103 mg/kg PO, Day 1, individual animals
  Summed Prophylactic (Non-Enrollment) Paw Score: 0
[2]; MT-SYK-03 103 mg/kg PO, Day 2
  % inhibition to Vehicle, Summed Prophylactic (Non-Enrollment) Paw Score: 15%
[2]; MT-SYK-03 103 mg/kg PO, Day 2, group mean
  Summed Prophylactic (Non-Enrollment) Paw Score: 2.20
[2]; MT-SYK-03 103 mg/kg PO, Day 2, individual animals, 103 mg/kg
  Summed Prophylactic (Non-Enrollment) Paw Score: 2 and 4 and 1 and 3 and 0
[2]; MT-SYK-03 103 mg/kg PO, Day 3
  % inhibition to Vehicle, Summed Prophylactic (Non-Enrollment) Paw Score: 23%
[2]; MT-SYK-03 103 mg/kg PO, Day 3, group mean
  Summed Prophylactic (Non-Enrollment) Paw Score: 3.60
[2]; MT-SYK-03 103 mg/kg PO, Day 3, individual animals, 103 mg/kg
  Summed Prophylactic (Non-Enrollment) Paw Score: 5 and 3 and 2 and 1 and 6 and 4
[2]; MT-SYK-03 103 mg/kg PO, Day 4
  % inhibition to Vehicle, Summed Prophylactic (Non-Enrollment) Paw Score: 19%
[2]; MT-SYK-03 103 mg/kg PO, Day 4, group mean
  Summed Prophylactic (Non-Enrollment) Paw Score: 5.20
[2]; MT-SYK-03 103 mg/kg PO, Day 4, individual animals, 103 mg/kg
  Summed Prophylactic (Non-Enrollment) Paw Score: 7 and 3 and 5 and 6 and 1 and 4
[2]; MT-SYK-03 103 mg/kg PO, Day 5
  % inhibition to Vehicle, Summed Prophylactic (Non-Enrollment) Paw Score: 16%
[2]; MT-SYK-03 103 mg/kg PO, Day 5, group mean
  Summed Prophylactic (Non-Enrollment) Paw Score: 6.10
[2]; MT-SYK-03 103 mg/kg PO, Day 5, individual animals, 103 mg/kg
  Summed Prophylactic (Non-Enrollment) Paw Score: 8 and 3 and 6 and 1 and 10 and 7 and 4
[2]; MT-SYK-03 103 mg/kg PO, Day 6
  % inhibition to Vehicle, Summed Prophylactic (Non-Enrollment) Paw Score: 16%
[2]; MT-SYK-03 103 mg/kg PO, Day 6, group mean
  Summed Prophylactic (Non-Enrollment) Paw Score: 6.40
[2]; MT-SYK-03 103 mg/kg PO, Day 6, individual animals, 103 mg/kg
  Summed Prophylactic (Non-Enrollment) Paw Score: 8 and 3 and 9 and 6 and 1 and 10 and 5
[2]; MT-SYK-03 103 mg/kg PO, Day 7
  % inhibition to Vehicle, Summed Prophylactic (Non-Enrollment) Paw Score: 17%
[2]; MT-SYK-03 103 mg/kg PO, Day 7, group mean
  Summed Prophylactic (Non-Enrollment) Paw Score: 6.50
[2]; MT-SYK-03 103 mg/kg PO, Day 7, individual animals, 103 mg/kg
  Summed Prophylactic (Non-Enrollment) Paw Score: 8 and 3 and 9 and 7 and 1 and 10 and 6 and 5
[2]; MT-SYK-03 103 mg/kg PO, Day 8
  % inhibition to Vehicle, Summed Prophylactic (Non-Enrollment) Paw Score: 20%
[2]; MT-SYK-03 103 mg/kg PO, Day 8, group mean
  Summed Prophylactic (Non-Enrollment) Paw Score: 6.50
[2]; MT-SYK-03 103 mg/kg PO, Day 8, individual animals, 103 mg/kg
  Summed Prophylactic (Non-Enrollment) Paw Score: 8 and 3 and 9 and 7 and 1 and 10 and 6 and 5
[2]; MT-SYK-03 103 mg/kg PO, Day 9
  % inhibition to Vehicle, Summed Prophylactic (Non-Enrollment) Paw Score: 20%
[2]; MT-SYK-03 103 mg/kg PO, Day 9, group mean
  Summed Prophylactic (Non-Enrollment) Paw Score: 6.80
[2]; MT-SYK-03 103 mg/kg PO, Day 9, individual animals, 103 mg/kg
  Summed Prophylactic (Non-Enrollment) Paw Score: 8 and 3 and 10 and 2 and 6 and 5
[2]; MT-SYK-03 103 mg/kg PO, Day 10
  % inhibition to Vehicle, Summed Prophylactic (Non-Enrollment) Paw Score: 18%
[2]; MT-SYK-03 103 mg/kg PO, Day 10, group mean
  Summed Prophylactic (Non-Enrollment) Paw Score: 7.20
